pEC50: −log10 of the molar value. Like-named read-outs stand apart in the source and are kept apart here.
Experiments:
Assay type in all cases: cell-based
HCV GT 1b replicon = assay: HCV replicon assay, stable GT 1b replicon (Renilla luciferase); settings: Hepatitis C virus, GT1B, 72 h
Procedure: (§1) The activity of compounds was determined against HCV replicons representing genotypes (GT) 1a, 1b, 2a, and 3a. To generate stable Huh-7.5-based cell lines, HCV replicons were engineered to express the Renilla luciferase reporter (hRluc) fused to the neomycin phosphotransferase (Neo) gene. GT2a and GT3a HCV replicons were based on the JFH-1 subgenomic replicon (Kato et al. 2003 Gastroenterology, 125:1808-1817), in which the NS5A gene was replaced with that of strains J6 and S52 (GT2a and G3a, respectively). The activity of compounds against GT1a replicons encoding NS5A mutations (M28T, Q30R, L31M, Y93C, and Y93H) was also determined in a transient replication assay. The parental GT1a and GT2a replicons (pH/SG-Neo(L+I) and pSG-Neo-JFH1, respectively) were licensed from Apath LLC (Saint Louis, Mo.). The parental GT 1b replicon (pFKi389lucubineo_3_3′_ET) was licensed from ReBLikon GmbH (Germany). HCV replicons were constructed by standard molecular biology techniques described below. All replicon constructs were verified by restriction enzyme digestion and DNA sequencing.
The hRluc-Neo cassette was PCR amplified from pF9 cytomegalovirus (CMV) hRluc-Neo Flexi(R) (Promega) using Accuprime Super Mix II (Invitrogen) and the following primers, which introduce restriction sites: […]
The amplification product was subcloned into pCR2.1-TOPO (Invitrogen). The resulting plasmid was digested with AscI and NotI, and the excised hRluc-Neo fragment was ligated using the Roche Quick Ligation Kit (Roche) into pFKi389lucubineo_3_3′_ET digested with the same enzymes.
Stable HCV replicon cell lines were grown in complete media (Dulbecco's modified Eagle medium [DMEM], 2 mM L-glutamine, 0.1 mM essential amino acids, 1 mM sodium pyruvate, 10% heat inactivated fetal bovine serum) with the addition 500 μg/ml […] (G418). Huh7-lunet cells were maintained in the same medium without the addition of G418. Cells were routinely passaged at a dilution of 1:4 two times a week. The assay medium for both luciferase reporter HCV replicon and cytotoxicity assays used phenol red-free DMEM and lacked G418. For each stable replicon assay, a sixteen point half-log dilution series of compound was stamped (0.5 ul compound per well) into three replica 384-well plates, to which cells were added directly (4000 cells/well). For the transient replication assay, Huh7-lunet cells in ice-cold phosphate buffered saline (PBS) were electroporated (BioRad electroporator; 950 uF, 270V) with 10 ug purified in vitro transcribed HCV replicon RNA, followed by resuspension in complete media and plating (8000 cells/well) into compound stamped 384-well plates. Luciferase activity of compound-treated cells was measured relative to DMSO-treated cells after 72 h incubation using RENILLA-GLO™ Luciferase Assay (Promega). Cytotoxicity (CC50) in the GT1b replicon cell line was analyzed using CELL TITER-GLO™ (Promega).
The compounds of the present invention can be effective against the HCV 1b genotype. It should also be understood that the compounds of the present invention can inhibit multiple genotypes of HCV. In one embodiment compound of the present invention are active against the 1a, 1b, 2a, 2b, 3a, 4a, and 5a genotypes. In another embodiment compound of the present invention are active against the HCV resistant mutants. […] EC50s are in pM against HCV GT 1a and GT 1b; and nM against GT 2a-J6, GT 3a and GT1a resistant variants (M28T, Q30R, L31V, Y93C and Y93H).

[1] = test system: GT1a replicon encoding NS5A mutation M28T; assay: Transient replication assay, GT1a replicon with NS5A mutation M28T; settings: Hepatitis C virus; for pEC50: read-out: EC50 1a M28T
[2] = test system: GT1a replicon encoding NS5A mutation L31V; assay: Transient replication assay, GT1a replicon with NS5A mutation L31V; settings: Hepatitis C virus; for pEC50: read-out: EC50 1a L31V
[3] = test system: GT1a replicon encoding NS5A mutation Y93C; assay: Transient replication assay, GT1a replicon with NS5A mutation Y93C; settings: Hepatitis C virus; for pEC50: read-out: EC50 1a Y93C
HCV GT 2a-J6 replicon = assay: HCV replicon assay, GT2a chimeric replicon expressing NS5A from GT2a strain J6; settings: Hepatitis C virus; for pEC50: 72 h, read-out: EC50 2a J6
Procedure: as §1
The plasmid pSG-hRlucNeo-JFH1 was generated from pSG-Neo-JFH1 (Kato et al. 2003, Gastroentrology 125:1808-1817). A fragment containing the JFH-1 5′ NTR—hRluc-Neo gene and two unique restriction sites (AgeI and PmeI) was synthesized (Integrated DNA Technologies, Coralville, Iowa). The resulting synthetic plasmid was digested with AgeI and PmeI and the excised fragment (5′NTR-hRluc-Neo) was ligated into pSG-Neo-JFH1 digested with the same enzymes to generate pSG-hRlucNeo-JFH1. To allow expression of heterologous NS5A sequences, an NS5A shuttle vector was generated from pSG-Neo-JFH1, in which the entire coding sequence of NS5A plus the first eight codons of NS5B were replaced with an AfeI restriction site. This was done by Infusion cloning (Clontech, Mountain View, Calif.) from two PCR products that were generated using pSG-Neo-JFH1 as a template and the following primer pairs:
Underlined sequences denote regions of overlap necessary for Infusion cloning. Purified PCR products were cloned directly into an NsiI/SnaBI digested pSG-Neo-JFH1 following the manufacturer's instructions to generate pSG-Neo-JFH1-5Ashuttle. The 2023 base pair AgeI/PmeI fragment from pSG-hRlucNeo-JFH1 was then ligated into pSG-Neo-JFH1-5Ashuttle to generate pSG-hRlucNeo-JFH1-5Ashuttle. To generate the 2a-2a-(J6) and 2a-3a-(S52) NS5A chimeric replicons, the full length NS5A sequences from GT2a strain J6 (accession AF177036) and GT3a strain S52 (accession GU814263), with the addition of the first eight codons of JFH-1 NS5B (5′-TCCATGTCATACTCCTGGACCGGG-3′), were synthesized by GeneArt (Life Technologies, Carlsbad Calif.). J6 and S52 NS5A sequences were then PCR amplified from the synthetic clones using the appropriate forward primer:
Underlined sequences denote regions of overlap with pSG-hRlucNeo-JFH1-5Ashuttle necessary for Infusion cloning. Purified PCR products were directly cloned into AfeI-digested shuttle vector by Infusion cloning following the manufacturer's instructions.
Stable HCV replicon cell lines were grown in complete media (Dulbecco's modified Eagle medium [DMEM], 2 mM L-glutamine, 0.1 mM essential amino acids, 1 mM sodium pyruvate, 10% heat inactivated fetal bovine serum) with the addition 500 μg/ml […] (G418). Huh7-lunet cells were maintained in the same medium without the addition of G418. Cells were routinely passaged at a dilution of 1:4 two times a week. The assay medium for both luciferase reporter HCV replicon and cytotoxicity assays used phenol red-free DMEM and lacked G418. For each stable replicon assay, a sixteen point half-log dilution series of compound was stamped (0.5 ul compound per well) into three replica 384-well plates, to which cells were added directly (4000 cells/well). […]

Row | SMILES | pEC50 (HCV GT 1b replicon) | pEC50 [1] | pEC50 [2] | pEC50 [3] | pEC50 (HCV GT 2a-J6 replicon) | EC50 ([1]; read-out: EC50 (nM) 1a M28T) [nM] | EC50 ([2]; read-out: EC50 (nM) 1a L31V) [nM] | EC50 ([3]; read-out: EC50 (nM) 1a Y93C) [nM] | EC50 (HCV GT 2a-J6 replicon; read-out: EC50 (nM) 2a-J6) [nM]
1 | COC(=O)N[C@H](C(=O)N1C[C@]2(CCCOC2)C[C@H]1c1ncc(-c2ccc3c(ccc4cc(-c5cnc([C@@H]6C[C@@H]7CCCC[C@@H]7N6C(=O)[C@@H](NC(=O)OC)C(C)C)[nH]5)ccc43)c2)[nH]1)C(C)C [Compound 17] | 10.89 | 11.10 | 9.52 | 9.52 | 7.66 | – | – | – | –
2 | COC(=O)N[C@H](C(=O)N1C[C@@]2(CCCCO2)C[C@H]1c1nc(-c2ccc(-c3ccc4c(ccc5nc([C@@H]6CCCN6C(=O)[C@@H](NC(=O)OC)C(C)C)[nH]c54)c3)cc2)c[nH]1)C(C)C [Example 3] | 10.40 | 8.22 | 7.36 | 9.15 | 6.57 | – | – | – | –
3 | COC(=O)N[C@H](C(=O)N1CCC[C@H]1c1ncc(-c2ccc(-c3ccc4c(ccc5nc([C@@H]6C[C@@]7(CCCOC7)CN6C(=O)[C@@H](NC(=O)OC)C(C)C)[nH]c54)c3)cc2)[nH]1)C(C)C [Compound 44] | 10.80 | 10.22 | 9.22 | 9.70 | 9.00 | – | – | – | –
4 | COC(=O)N[C@H](C(=O)N1CC2(CCOCC2)C[C@H]1c1ncc(-c2ccc(-c3ccc4c(ccc5nc([C@@H]6CCCN6C(=O)[C@@H](NC(=O)OC)C(C)C)[nH]c54)c3)cc2)[nH]1)C(C)C [Example 83] | 10.38 | 9.05 | 8.22 | 9.00 | 7.49 | – | – | – | –
5 | COC(=O)N[C@H](C(=O)N1C[C@]2(CCOC2)C[C@H]1c1ncc(-c2ccc(-c3ccc4c(ccc5nc([C@@H]6CCCN6C(=O)[C@@H](NC(=O)OC)C(C)C)[nH]c54)c3)cc2)[nH]1)C(C)C [Compound 26] | 10.66 | 8.52 | 7.96 | 9.10 | 7.66 | – | – | – | –
6 | COC(=O)N[C@H](C(=O)N1C[C@]2(CCCOC2)C[C@H]1c1nc2ccc3cc(-c4ccc(-c5cnc([C@@H]6C[C@@H]7CCC[C@@H]7N6C(=O)[C@@H](NC(=O)OC)C(C)C)[nH]5)cc4)ccc3c2[nH]1)C(C)C [Compound 10] | 11.30 | 10.40 | 10.30 | 9.70 | 9.70 | – | – | – | –
7 | COC(=O)N[C@H](C(=O)N1C[C@]2(CCCOC2)C[C@H]1c1ncc(-c2ccc(-c3ccc4c(c3)CCCc3nc([C@@H]5C[C@@H]6CCCC[C@@H]6N5C(=O)[C@@H](NC(=O)OC)C(C)C)[nH]c3-4)cc2)[nH]1)C(C)C [Compound 40] | 11.10 | 9.22 | 9.00 | 9.15 | 7.26 | – | – | – | –
8 | COC(=O)N[C@H](C(=O)N1C[C@]2(CCCOC2)C[C@H]1c1ncc(-c2ccc(-c3ccc4c(ccc5nc([C@@H]6C[C@H]7C[C@H]7N6C(=O)[C@@H](NC(=O)OC)C(C)C)[nH]c54)c3)cc2)[nH]1)C(C)C [Compound 18] | 10.96 | 9.70 | 9.52 | 9.70 | 8.70 | – | – | – | –
9 | COC(=O)N[C@H](C(=O)N1C[C@]2(CCCOC2)C[C@H]1c1nc2ccc3cc(-c4ccc5c(ccc6nc([C@@H]7C[C@@]8(CCCOC8)CN7C(=O)[C@@H](NC(=O)OC)C(C)C)[nH]c65)c4)ccc3c2[nH]1)C(C)C [Compound 31] | 10.24 | 11.15 | 10.52 | 11.15 | 9.52 | – | – | – | –
10 | COC(=O)N[C@H](C(=O)N1C[C@]2(CCCOC2)C[C@H]1c1ncc(-c2ccc(-c3ccc(-c4cnc([C@@H]5C[C@@H]6CCCC[C@@H]6N5C(=O)[C@@H](NC(=O)OC)C(C)C)[nH]4)cc3)cc2)[nH]1)C(C)C [Compound 32] | 11.22 | 10.30 | 9.40 | 9.30 | 8.70 | – | – | – | –
11 | COC(=O)N[C@H](C(=O)N1C[C@]2(CCCCO2)C[C@H]1c1nc(-c2ccc(-c3ccc4c(ccc5nc([C@@H]6CCCN6C(=O)[C@@H](NC(=O)OC)C(C)C)[nH]c54)c3)cc2)c[nH]1)C(C)C [Example 2] | 11.15 | 10.00 | 9.52 | 9.70 | 7.57 | – | – | – | –
12 | COC(=O)N[C@H](C(=O)N1C[C@]2(CCCOC2)C[C@H]1c1ncc(-c2ccc(-c3ccc4c(ccc5nc([C@@H]6CCCN6C(=O)[C@@H](NC(=O)OC)C(C)C)[nH]c54)c3)cc2)[nH]1)C(C)C [drawing 233] | – | – | – | – | – | 0.2 | 1 | 0.3 | 0.6

From US10407445B2, “Hepatitis C virus inhibitors” (ENANTA PHARMACEUTICALS, INC., priority 2013, dated 2019)
